Assay results published in PMC10223284, “Category-Based Toxicokinetic Evaluations of Data-Poor Per- and Polyfluoroalkyl Substances (PFAS) using Gas Chromatography Coupled with Mass Spectrometry” (Toxics, 2023).
Values joined by “and” are separate entries in the source; they are usually repeats but may differ in a detail not shown here. Equal entries are not always repeated. Where two headings read alike, the source gives them in different places.

Key:
human primary cells = details: cited from earlier work
[1] = In vitro-in vivo extrapolation (IVIVE) to Css and administered equivalent dose (AED); design: species or system human; details: for Clhep: IVIVE, hepatocyte Clint scaled to whole-liver clearance; for AED: administered equivalent dose from LOEC and Css; for Fub: fub=fup/(B:P), Fub set to 1 if needed; for CLint: scaled with HPGL 110 mill cells/g, Vl 1596 g
Experimental: Using the experimentally generated PPB (fraction unbound in plasma, fup) and hepatic Clint data, IVIVE was performed as previously described to calculate human steady-state plasma concentrations (Css). Briefly, experimental measures of fup are adjusted using blood:plasma partitioning information to estimate the fraction unbound in blood (fub). Experimental hepatocyte Clint data are scaled up to represent whole-liver clearance (L/h). […] Once estimated, these Css values are considered in conjunction with published in vitro bioactivity concentrations (i.e., lowest-observed effective concentrations, or LOECs) to calculate AEDs (Table 2). See Table S10 for all relevant IVIVE inputs, scalars, calculations, and outputs.

human plasma [2] = experiment: Ultracentrifugation (UC) plasma protein binding assay, fraction unbound in plasma (fup); details: for Fraction Unbound (fu), Run-specific Avg: average of one UC run (run date in line above); for Mean fu: fraction unbound in human plasma, some values based on eLOQ; for Mean fu / fup: ultracentrifugation; for fup: 10 μM, 37 °C; for Fraction Unbound (fu), replicates A, B, C: single replicate of one UC run (aqueous fraction / Time 5 hr)
human plasma [3] = experiment: Chemical stability in plasma over the UC assay time course (T5hr/T1hr); details: for PPB_Stab_Fail: flag for stability failure in the plasma protein binding assay (1 = fail, 0 = pass); for Mean Stability: mean T5hr/T1hr ratio over all replicates and runs, plasma; for Stability (T5hr/ T1hr), replicates A, B, C: single replicate of one UC run
[4] = Abiotic loss in negative controls of the hepatocyte clearance assay (cell-free media, metabolically inactivated hepatocytes); assay type: in vitro ADME; details: for Hep_Stab_Fail: flag for stability failure in hepatocyte clearance assay controls (1 or Fst = fail, 0 = pass); for HT BkgdCl, Half Life / HT BkgdCl, Slope: heat treated hepatocytes control; for HT BkgdCl, Half Life / HT BkgdCl, Slope / No Cells BkgdCl, Half Life / No Cells BkgdCl, Slope: 0 vs 240 min; for Negative Controls, Heat Treated (HT), concentration at 0 min / Negative Controls, Heat Treated (HT), concentration at 240 min: heat treated hepatocytes; for Negative Controls, Heat Treated (HT), concentration at 0 min / Negative Controls, Heat Treated (HT), concentration at 240 min / Negative Controls, No cells (NC), concentration at 0 min / Negative Controls, No cells (NC), concentration at 240 min: Rep 1-3; for No Cells BkgdCl, Half Life / No Cells BkgdCl, Slope: no cells control
Method in brief: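 Test compound at 1 μM incubated at 37 °C with shaking in complete William's medium E, either cell-free or with metabolically inactivated hepatocytes, then quenched with ice-cold acetonitrile for quantitative analysis.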

[5] = system: pooled human cryopreserved primary hepatocyte suspensions; experiment: Hepatic metabolic stability (hepatocyte clearance) assay, substrate depletion; assay type: in vitro ADME; details: for Bkgd-Sub Clearance (µL/min/106 hepatocytes): background-subtracted; for Concentration (nM), Time 0 min / Concentration (nM), Time 15 min / Concentration (nM), Time 30 min / Concentration (nM), Time 60 min / Concentration (nM), Time 120 min / Concentration (nM), Time 240 min: hepatocyte incubation, Rep 1-3, start conc 1000 nM; for Linear Regression Results, Best-Fit Values, Slope / Linear Regression Results, Best-Fit Values, Clearance / Linear Regression Results, Best-Fit Values, Half Life: hepatocyte time course; for Linear Regression Results, Best-Fit Values, Clearance / Linear Regression Results, Best-Fit Values, Half Life: NS = slope not significant
From the text: William’s Medium E (Gibco A1217601), dexamethasone, and cell maintenance cocktail B (Gibco CM4000) were obtained from Thermo Fisher Scientific (Waltham, MA, USA). Hepatosure OptiThaw media (P/N K8000; Lot No. 18–1–0322) was obtained from Sekisui Xenotech (Kansas City, KS, USA). Trypan blue solution (P/N 1450021) was obtained from Bio-Rad (Hercules, CA, USA). Pooled human cryopreserved primary hepatocyte suspensions were obtained from BioIVT (Westbury, NY, USA) and produced using nontransplantable tissue. The human 50-donor pool (mixed gender; Cat X0080005; Lot MYC), selected from BioIVT’s commercially available, prepooled lots, was selected following review of vendor-generated metabolic characterization information. Pooled, mixed-sex human plasma from de-identified donors was obtained from a commercial vendor that operates a U.S. Food and Drug Administration-licensed and inspected donor center (BioIVT bioivt.com (accessed 12 May 2023). Donors comprised five males and five females and ranged from 20 to 50 years of age. Plasma collected using anticoagulant K2EDTA was sterile-filtered ([…]) and stored at <−70 °C until use.
The hepatic metabolic stability assay measures the loss of a parent compound over time in a substrate-depletion approach. Briefly, hepatocyte suspensions, after a viability assessment, were diluted in complete William’s medium E (containing dexamethasone and cell maintenance cocktail B) prior to addition to 96-well polypropylene plates containing an equal volume of media spiked with the test compound (1 μM assay concentration; assay cell density = 50,000 cells/100 μL) and maintained at 37 °C with shaking. At each time point, relevant plates were crashed with an equal volume of ice-cold acetonitrile, centrifuged, and supernatant transferred to a new plate prior to storage at <−70 °C until quantitative analysis. Controls, run in parallel, included cell-free (i.e., media only) and metabolically inactivated hepatocytes to evaluate abiotic chemical stability in the aqueous media matrix with and without cellular protein. In preliminary runs, these controls were run at T0 and T240 only. If significant instability was noted, the hepatocyte clearance assay was rerun, including cell-free samples at each time point and metabolically inactivated hepatocytes at selected time points.
To process samples for quantitative analysis, samples were thawed and mixed. An aliquot of sample was removed and diluted in acetonitrile (1 part sample plus 9 parts acetonitrile) containing the relevant ISs selected for the PFAS being analyzed (See Table S2). The target at instrument concentration of each IS was 10 pg/μL.
The curves were generated using concentration/response ratios from the target analyte and IS, with either linear or quadratic regression models. The model and weighting, if necessary, were chosen to most accurately reflect the response of each compound and was evaluated by recalculating the individual calibration points using the curve. An acceptable model reflected an accuracy of ±30% of the theoretical value.
Hepatic metabolic clearance data were plotted in semi-log format (ln concentration vs. time) with three replicates at each time point, as previously described. […] The equations described below are used to calculate the chemical half-life (T½) and intrinsic in vitro clearance (Clin vitro) with units of μL/(min × million hepatocytes). In Equation (3), 2000 is a scalar used to adjust the assay cell number up to be consistent with units of 1 million cells in the Clint equation.
Negative controls, including media only and metabolically inactivated hepatocyte controls, were included to monitor abiotic loss (i.e., background clearance) during the assay. Where significant compound loss occurred using the analysis described above, background clearance rates were calculated and used to background-adjust hepatic metabolic clearance rates. […]

[6] = BioSeek lowest-observed effect concentration used for AED
[7] = minimum lowest-observed effect concentration, BioSeek platform
[8] = Assuming 1 mg/kg/day dose rate, BW 70 kg
[9] = human steady-state plasma concentration, assuming 1 mg/kg/day dosage

Compound: OCC(F)(F)C(F)(F)C(F)(F)CO [Hexafluoroamylene glycol]
- LOEC (human primary cells; [6]): 2.00 µM
- LOEC (human primary cells; [7]): 2 µM
- Css [1, 8]: 0.44 mg/L and 2.07 uM
- Clhep [1]: 0.000 L/h
- AED [1]: 0.9667 mg/kg/day
- Fub [1]: 1
- Css [1, 9]: 2.07 µM
- Css ([1]; human steady-state plasma concentration, assuming 1 mg/kg/day dosage, listed as hexafluoroamylene glycol): 2.1 to 2.7 µM
- CLint [1]: 0 µL/min
- Fraction Unbound (fu), Run-specific Avg (human plasma [2]): 0.68
- Mean fu (human plasma [2]): 0.6770
- fup (human plasma [2]; human plasma): 0.6770
- fup (human plasma [2]; human plasma, listed as hexafluoroamylene glycol): 0.68
- Fraction Unbound (fu), replicates A, B, C (human plasma [2]): 0.6223 and 0.7422 and 0.6663
- PPB_Stab_Fail (human plasma [3]): 0
- Mean Stability (human plasma [3]): 0.996
- Stability (T5hr/ T1hr), replicates A, B, C (human plasma [3]): 1.079 and 0.9916 and 0.917
- Hep_Stab_Fail [4]: 0
- HT BkgdCl, Half Life [4]: 329.06
- HT BkgdCl, Slope [4]: -0.002106
- Negative Controls, Heat Treated (HT), concentration at 0 min [4]: 941.377 nM and 735.79 nM and 794.754 nM
- Negative Controls, Heat Treated (HT), concentration at 240 min [4]: 487.17 nM and 595.696 nM and 416.449 nM
- No Cells BkgdCl, Half Life [4]: 490.099
- No Cells BkgdCl, Slope [4]: -0.001414
- Negative Controls, No cells (NC), concentration at 0 min [4]: 830.122 nM and 683.027 nM and 707.501 nM
- Negative Controls, No cells (NC), concentration at 240 min [4]: 479.464 nM and 568.092 nM and 532.117 nM
- Bkgd-Sub Clearance (µL/min/106 hepatocytes) [5]: 0.00 µL/min/106 hepatocytes
- Concentration (nM), Time 0 min [5]: 904.289 nM and 891.557 nM and 657.581 nM
- Concentration (nM), Time 15 min [5]: 889.716 nM and 801.576 nM and 938.868 nM
- Concentration (nM), Time 30 min [5]: 774.463 nM and 733.048 nM and 756.418 nM
- Concentration (nM), Time 60 min [5]: 901.107 nM and 929.789 nM and 820.604 nM
- Concentration (nM), Time 120 min [5]: 865.693 nM and 807.871 nM and 671.853 nM
- Concentration (nM), Time 240 min [5]: 674.351 nM and 611.715 nM and 490.915 nM
- Linear Regression Results, Best-Fit Values, Slope [5]: -0.001398
- Linear Regression Results, Best-Fit Values, Clearance [5]: 2.796
- Linear Regression Results, Best-Fit Values, Half Life [5]: 495.708
- clearance rate in hepatocytes ([5]; human hepatocyte suspensions, values as rounded or worded in text): no clearance

Compound: 3-(Perfluoro-2-butyl) propane-1,2-diol
- LOEC (human primary cells; [6]): 2.00 µM
- LOEC (human primary cells; [7]): 2 µM
- Css [1, 8]: 0.09 mg/L and 0.30 uM
- Clhep [1]: 28.460 L/h
- AED [1]: 6.5951 mg/kg/day
- Fub [1]: 0.672
- Css [1, 9]: 0.30 µM
- CLint [1]: 1032293 µL/min
- Fraction Unbound (fu), Run-specific Avg (human plasma [2]): 0.37
- Mean fu (human plasma [2]): 0.3696
- fup (human plasma [2]; human plasma): 0.3696
- Mean Fu (human plasma [2]; mean fraction unbound over all replicates and runs, UC assay, human plasma): 0.370
- Fup.Med (human plasma [2]; median fraction unbound in plasma, UC assay Level4): 0.364
- Fup.point (human plasma [2]; point estimate of fraction unbound in plasma, UC assay Level4): 0.37
- Fraction Unbound (fu), replicates A, B, C (human plasma [2]): 0.349 and 0.339 and 0.421
- Stability (T5hr/ T1hr), Run-specific Avg (human plasma [3]; average of one UC run (run date in line above)): 0.962
- PPB_Stab_Fail (human plasma [3]): 0
- Mean Stability (human plasma [3]): 0.965
- Fstable.Med (human plasma [3]; median fraction stable in plasma, UC assay Level4): 0.232
- Stability (T5hr/ T1hr), replicates A, B, C (human plasma [3]): 0.883 and 0.994 and 1.018
- Hep_Stab_Fail [4]: 0
- HT BkgdCl, Half Life [4]: 285.42
- HT BkgdCl, Slope [4]: -0.002428
- Negative Controls, Heat Treated (HT), concentration at 0 min [4]: 1083.95 nM and 2011.47 nM and 1037.82 nM
- Negative Controls, Heat Treated (HT), concentration at 240 min [4]: 725.383 nM and 763.18 nM and 711.759 nM
- No Cells BkgdCl, Half Life [4]: 506.95
- No Cells BkgdCl, Slope [4]: -0.001367
- Negative Controls, No cells (NC), concentration at 0 min [4]: 1136.56 nM and 1061.97 nM
- Negative Controls, No cells (NC), concentration at 240 min [4]: 792.448 nM and 800.439 nM and 781.338 nM
- Clint.1.Med ([5]; Bayesian analysis median, 1 μM assay concentration (Table S9)): 4.6
- Bkgd-Sub Clearance (µL/min/106 hepatocytes) [5]: 5.876 µL/min/106 hepatocytes
- Unadj Clint ([5]; hepatocyte clearance, Conc 1000 nM, not background adjusted): 8.61
- Concentration (nM), Time 0 min [5]: 880.591 nM and 1037.48 nM and 1054.86 nM
- Concentration (nM), Time 15 min [5]: 858.26 nM and 1099.86 nM and 993.717 nM
- Concentration (nM), Time 30 min [5]: 742.136 nM and 974.371 nM and 915.81 nM
- Concentration (nM), Time 60 min [5]: 904.196 nM and 908.986 nM and 744.943 nM
- Concentration (nM), Time 120 min [5]: 623.052 nM and 608.094 nM and 642.654 nM
- Concentration (nM), Time 240 min [5]: 400.866 nM and 351.17 nM and 326.466 nM
- Linear Regression Results, Best-Fit Values, Slope [5]: -0.004305
- Linear Regression Results, Best-Fit Values, Clearance [5]: 8.61
- Linear Regression Results, Best-Fit Values, Half Life [5]: 160.976
- In Vitro Clint ([5]; pooled human hepatocyte suspensions, 1 μM): 5.88 μL/min/10^6 cells
- Unadj in vitro Clint ([5]; unadjusted hepatocyte intrinsic clearance): 8.61
